From patent US20210255193A1, “LYSINE REACTIVE PROBES AND USES THEREOF” (The Scripps Research Institute, priority 2017, published 2021)
One block for each molecule: values may come before it.

Assays:
Assay in all cases: competitive isoTOP-ABPP
Type in all cases: binding
OLA1 Obg-like ATPase 1 = biological target: T1, OLA1 Obg-like ATPase 1 (Homo sapiens, UniProt Q9NTK5); details: for isoTOP-ABPP ratio, lysine Q9NTK5_K248: 50 uM_231_sol_in vitro; for R value (DMSO/fragment) for probe 1 labeling: Q9NTK5_K248; for R value (DMSO/fragment) for probe 1 labeling / isoTOP-ABPP ratio (R) at liganded lysine Q9NTK5_K248 / isoTOP-ABPP reactivity ratio at lysine Q9NTK5_K248: 50 uM, in vitro; for R value (DMSO/fragment) for probe 1 labeling / isoTOP-ABPP reactivity ratio at lysine Q9NTK5_K248: 231 sol; for isoTOP-ABPP ratio (R) at liganded lysine Q9NTK5_K248: sol, 231
T1 construct: endogenous in cells; host or cells: MDA-MB-231 (soluble fraction of lysate)
How it was run: (§1)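 Readout: isotopic light/heavy MS1 peak-area ratio (R, DMSO heavy over compound light), median across peptides sharing a modified lysine. Lysate received fragment (activated esters 50 μM, guanidinylating agents 100 μM final) or DMSO, then 0.1 mM STP-alkyne probe for 1 h at ambient temperature.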

[1] = biological target: T2, TRAP1 Heat shock protein 75 kDa, mitochondrial (Homo sapiens, UniProt Q12931); details: for isoTOP-ABPP ratio, lysine Q12931_K699: 50 uM_231_sol_in vitro; for R value (DMSO/fragment) for probe 1 labeling: Q12931_K699; for R value (DMSO/fragment) for probe 1 labeling / isoTOP-ABPP ratio (R) at liganded lysine Q12931_K699 / isoTOP-ABPP reactivity ratio at lysine Q12931_K699: 50 uM, in vitro; for R value (DMSO/fragment) for probe 1 labeling / isoTOP-ABPP reactivity ratio at lysine Q12931_K699: 231 sol; for isoTOP-ABPP ratio (R) at liganded lysine Q12931_K699: sol, 231
T2 construct: isoTOP-ABPP experiments performed in cell lysates (in vitro); endogenous in cells; host or cells: soluble proteome of human cancer cell lines (MDA-MB-231, Ramos, Jurkat)
T2 sequence (Q12931 60-704): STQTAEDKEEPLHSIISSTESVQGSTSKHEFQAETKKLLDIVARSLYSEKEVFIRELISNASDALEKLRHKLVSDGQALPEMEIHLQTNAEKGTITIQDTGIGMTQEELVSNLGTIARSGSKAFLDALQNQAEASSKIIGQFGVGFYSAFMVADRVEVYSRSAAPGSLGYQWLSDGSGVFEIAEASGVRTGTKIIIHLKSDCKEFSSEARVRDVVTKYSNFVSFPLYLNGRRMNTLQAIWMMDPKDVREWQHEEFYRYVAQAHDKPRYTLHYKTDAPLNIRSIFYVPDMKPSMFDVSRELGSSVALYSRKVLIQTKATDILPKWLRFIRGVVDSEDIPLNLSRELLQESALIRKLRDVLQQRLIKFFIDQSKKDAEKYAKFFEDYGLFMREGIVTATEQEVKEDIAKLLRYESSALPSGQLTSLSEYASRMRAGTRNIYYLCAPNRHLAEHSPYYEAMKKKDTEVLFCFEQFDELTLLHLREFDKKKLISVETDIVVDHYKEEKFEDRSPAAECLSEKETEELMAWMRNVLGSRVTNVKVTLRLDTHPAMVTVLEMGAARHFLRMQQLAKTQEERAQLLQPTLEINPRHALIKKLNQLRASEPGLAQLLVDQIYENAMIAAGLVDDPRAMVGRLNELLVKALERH
How it was run: as §1

[2] = biological target: T3, GLOD4 Glyoxalase domain-containing protein 4 (Homo sapiens, UniProt Q9HC38); details: for R value (DMSO/fragment) for probe 1 labeling: Q9HC38_K305; for R value (DMSO/fragment) for probe 1 labeling / isoTOP-ABPP ratio (R) at liganded lysine Q9HC38_K305 / isoTOP-ABPP reactivity ratio at lysine Q9HC38_K305: 50 uM, in vitro; for R value (DMSO/fragment) for probe 1 labeling / isoTOP-ABPP reactivity ratio at lysine Q9HC38_K305: 231 sol; for isoTOP-ABPP ratio (R) at liganded lysine Q9HC38_K305: sol, 231
T3 construct: endogenous in cells; host or cells: MDA-MB-231 (soluble fraction of lysate)
T3 sequence (Q9HC38 1-313): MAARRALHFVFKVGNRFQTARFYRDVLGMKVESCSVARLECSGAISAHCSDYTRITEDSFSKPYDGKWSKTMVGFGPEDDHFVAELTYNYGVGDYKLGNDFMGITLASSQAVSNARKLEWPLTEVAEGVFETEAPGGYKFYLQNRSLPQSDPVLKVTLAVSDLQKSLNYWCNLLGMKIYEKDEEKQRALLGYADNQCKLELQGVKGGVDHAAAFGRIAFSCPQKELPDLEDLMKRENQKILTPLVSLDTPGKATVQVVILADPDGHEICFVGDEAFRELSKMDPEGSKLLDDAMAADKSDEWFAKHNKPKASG
How it was run: as §1

isoTOP-ABPP ratio, lysine Q9NTK5_K248 (OLA1 Obg-like ATPase 1): 1.0
isoTOP-ABPP ratio, lysine Q12931_K699 [1]: 1.0
Compound: O=C(Oc1c(F)c(F)cc(F)c1F)c1cc(C(F)(F)F)cc(C(F)(F)F)c1 [fragment 48, 2,3,5,6-Tetrafluorophenyl 3,5-bis(trifluoromethyl)benzoate]

R value (DMSO/fragment) for probe 1 labeling [2]: 0.9
R value (DMSO/fragment) for probe 1 labeling (OLA1 Obg-like ATPase 1): 1.0
R value (DMSO/fragment) for probe 1 labeling [1]: 1.2
Compound: O=C(CCc1cn(-c2ccccc2)nc1-c1ccccc1)Oc1c(F)c(F)c(F)c(F)c1F [fragment 19, Pentafluorophenyl 3-(1,3-diphenyl-1H-pyrazol-4-yl)propanoate]

Compound: O=C(Oc1ccc([N+](=O)[O-])cc1[N+](=O)[O-])C(c1ccccc1)(c1ccccc1)c1ccccc1 [fragment 42, 2,4-Dinitrophenyl 2,2,2-triphenylacetate]
isoTOP-ABPP ratio (R) at liganded lysine Q9HC38_K305 [2]: 0.9
isoTOP-ABPP ratio (R) at liganded lysine Q9NTK5_K248 (OLA1 Obg-like ATPase 1): 1.0
isoTOP-ABPP ratio (R) at liganded lysine Q12931_K699 [1]: 1.0

R value (DMSO/fragment) for probe 1 labeling [2]: 0.8
R value (DMSO/fragment) for probe 1 labeling (OLA1 Obg-like ATPase 1): 1.0
R value (DMSO/fragment) for probe 1 labeling [1]: 0.9
Compound: O=C(Oc1c(F)c(F)c(F)c(F)c1F)c1cc(C(F)(F)F)cc(C(F)(F)F)c1 [fragment 21, Pentafluorophenyl 3,5-bis(trifluoromethyl)benzoate]

Compound: CC(C)(C)OC(=O)NCCCC(=O)Oc1ccc([N+](=O)[O-])cc1[N+](=O)[O-] [fragment 41, 2,4-Dinitrophenyl 4-((tert-butoxycarbonyl)amino)butanoate]
isoTOP-ABPP ratio (R) at liganded lysine Q9HC38_K305 [2]: 20.0
isoTOP-ABPP ratio (R) at liganded lysine Q9NTK5_K248 (OLA1 Obg-like ATPase 1): 1.0
isoTOP-ABPP ratio (R) at liganded lysine Q12931_K699 [1]: 1.3

isoTOP-ABPP ratio, lysine Q9NTK5_K248 (OLA1 Obg-like ATPase 1): 1.2
isoTOP-ABPP ratio, lysine Q12931_K699 [1]: 1.1
Compound: O=C(Oc1c(F)c(F)c(C(F)(F)F)c(F)c1F)c1cc(C(F)(F)F)cc(C(F)(F)F)c1 [fragment 47, 2,3,5,6-Tetrafluoro-4-(trifluoromethyl)phenyl 3,5-bis(trifluoromethyl)benzoate]

Compound: O=C(Oc1ccc([N+](=O)[O-])cc1[N+](=O)[O-])C1CCN(C(=O)OCc2ccccc2)CC1 [fragment 34, 1-Benzyl 4-(2,4-dinitrophenyl) piperidine-1,4-dicarboxylate]
isoTOP-ABPP ratio (R) at liganded lysine Q9HC38_K305 [2]: 20.0
isoTOP-ABPP ratio (R) at liganded lysine Q9NTK5_K248 (OLA1 Obg-like ATPase 1): 0.9
isoTOP-ABPP ratio (R) at liganded lysine Q12931_K699 [1]: 1.8

Compound: O=C(CCc1cn(-c2ccccc2)nc1-c1ccccc1)Oc1ccc([N+](=O)[O-])cc1[N+](=O)[O-] [fragment 29, 2,4-Dinitrophenyl 3-(1,3-diphenyl-1H-pyrazol-4-yl)propanoate]
isoTOP-ABPP reactivity ratio at lysine Q9HC38_K305 [2]: 0.9
isoTOP-ABPP reactivity ratio at lysine Q9NTK5_K248 (OLA1 Obg-like ATPase 1): 0.9
isoTOP-ABPP reactivity ratio at lysine Q12931_K699 [1]: 2.2

isoTOP-ABPP reactivity ratio at lysine Q9HC38_K305 [2]: 0.8
isoTOP-ABPP reactivity ratio at lysine Q9NTK5_K248 (OLA1 Obg-like ATPase 1): 1.0
Compound: O=C(CCc1coc2cc(F)ccc2c1=O)Oc1c(F)c(F)c(F)c(F)c1F [fragment 26, Pentafluorophenyl 3-(7-fluoro-4-oxo-4H-chromen-3-yl)propanoate]

isoTOP-ABPP ratio, lysine Q9HC38_K305 ([2]; 50 uM_231_sol_in vitro): 0.9
isoTOP-ABPP ratio, lysine Q9NTK5_K248 (OLA1 Obg-like ATPase 1): 0.9
isoTOP-ABPP ratio, lysine Q12931_K699 [1]: 1.2
Compound: NC(=O)c1cc(C(F)(F)F)cc(C(F)(F)F)c1 [fragment 51, reference compound]

Compound: Cn1cc(CC(=O)Oc2ccc([N+](=O)[O-])cc2[N+](=O)[O-])c2ccccc21 [fragment 32, 2,4-Dinitrophenyl 2-(1-methyl-1H-indol-3-yl)acetate]
isoTOP-ABPP reactivity ratio at lysine Q9NTK5_K248 (OLA1 Obg-like ATPase 1): 1.0
isoTOP-ABPP reactivity ratio at lysine Q12931_K699 [1]: 2.0

Compound: O=C(CCc1coc2cc(F)ccc2c1=O)Oc1ccc([N+](=O)[O-])cc1[N+](=O)[O-] [fragment 36, 2,4-Dinitrophenyl 3-(7-fluoro-4-oxo-4H-chromen-3-yl)propanoate]
isoTOP-ABPP ratio (R) at liganded lysine Q9NTK5_K248 (OLA1 Obg-like ATPase 1): 0.8
isoTOP-ABPP ratio (R) at liganded lysine Q12931_K699 [1]: 1.7

Compound: O=C(ON1C(=O)CCC1=O)c1cc(C(F)(F)F)cc(C(F)(F)F)c1 [fragment 46, 3,5-Bis(trifluoromethyl)benzoic acid NHS ester]
isoTOP-ABPP ratio, lysine Q9NTK5_K248 (OLA1 Obg-like ATPase 1): 1.2
isoTOP-ABPP ratio, lysine Q12931_K699 [1]: 0.9
